Where a name gives a salt, the structure may show the parent alone.
Tests used:
[1] = tested on: finishing pigs; experiment: Growth performance and carcass characteristics of finishing pigs fed astaxanthin with or without Paylean; format: in vivo; details: for ADFI (Average Daily Feed Intake) / ADG (Average Daily Gain) / F/G (Pounds of feed to gain one pound of weight) / G/F (Reciprocal of F/G): 26 d
Protocol: Procedures used in the experiment were approved by the Kansas State University (KSU) Animal Care and Use Committee. The project was conducted at the KSU Swine Teaching and Research Farm. Pigs were housed in an environmentally-regulated finishing building with pens over a totally slatted floor that provided approximately 8 ft^2 per pig. Each pen was equipped with a dry, self-feeder and one nipple waterer, providing ad libitum access to feed and water. The facility was a mechanically-ventilated room with a pull-plug, manure storage pit.
A total of 144 finishing pigs from a single group (72 barrows and 72 gilts) were utilized for the experiments. Pigs were blocked by weight and gender, and allotted to one of 9 dietary treatments for an average period of 27 days pre-harvest. Each pen served as an experimental unit, with 2 pigs/pen and 8 replications to provide 16 pigs per treatment.
Experimental diets were provided in meal form and astaxanthin (0, 5, 7.5 and 10 ppm) was added to the control diet at the expense of corn starch to achieve the dietary treatments (Table 1). Paylean® was added to the diets indicated to contain 10 ppm.
Pigs were weighed on day 0, 7, 14, 21, and ˜27 to calculate average daily gain, average daily feed intake, and feed efficiency. Upon completion of the collection of growth performance data, all pigs were euthanized and processed for the collection of standard carcass measurements (dressing percentage, 10th rib backfat depth, loin muscle area, etc.).
Data were analyzed as a randomized complete block design using the PROC MIXED procedure of SAS with pen as the experimental unit. Linear and quadratic polynomial contrasts were used to determine the effect of increasing astaxanthin, with and without addition of Paylean®.
The source of natural astaxanthin used in this example was the yeast Phaffia rhodozyma which is commercially available under the trade name Aquasta® containing 10000 ppm astaxanthin, by weight.

[2] = tested on: pigs; details: Trapp et al. 2002; cited from earlier work
[3] = tested on: finishing pigs; details: Yang et al., cited from earlier work
[4] = 10 ppm Paylean, 0 ppm astaxanthin
[5] = 5 ppm astaxanthin in diet, without Paylean
[6] = 7.5 ppm astaxanthin in diet, without Paylean
[7] = 10 ppm astaxanthin in diet, without Paylean

**Q.** With `CC(CCc1ccc(O)cc1)NCC(O)c1ccc(O)cc1` (stereo not drawn) [Paylean®, ractopamine hydrochloride, reference compound] as the molecule, how does the “LEA (loin eye areas), average” value ([1]; 10 ppm Paylean alone) read?
**A.** 8.29 square inches

**Q.** And the “increase of LEA over control pigs” value ([1]; 10 ppm Paylean alone vs control diet without astaxanthin or Paylean)?
**A.** 1.03 square inches

**Q.** What about the “BF-10th rib (Back Fat)” value [1, 4] of the same molecule?
**A.** 0.81 in.

**Q.** And the “BF-avg. (Back Fat)” value [1, 4]?
**A.** 1.06 in.

**Q.** And the “Body weight, Final” value [1, 4]?
**A.** 297.1 lb

**Q.** What about the “Carcass Yield” value [1, 4] of the same molecule?
**A.** 72.0%

**Q.** What about the “HCW (Hot Carcass Weight)” value [1, 4] of the same molecule?
**A.** 213.9 lb

**Q.** And the “LEA-10th rib (Loin Eye Area)” value [1, 4]?
**A.** 8.29 in^2

**Q.** And the “PFFL (Percent Fat Free Lean, SFFL/HCW)” value [1, 4]?
**A.** 53.8%

**Q.** And the “SFFL (Standard Fat Free Lean)” value [1, 4]?
**A.** 115.2 lb

**Q.** And the “SFFL (standard fat free lean)” value ([1]; 10 ppm Paylean, control 108.4 pounds)?
**A.** 115.2 pounds

**Q.** What about the “ADFI (Average Daily Feed Intake)” value [1, 4] of the same molecule?
**A.** 8.05 lb

**Q.** What about the “ADG (Average Daily Gain)” value [1, 4] of the same molecule?
**A.** 2.83 lb

**Q.** What about the “F/G (Pounds of feed to gain one pound of weight)” value [1, 4] of the same molecule?
**A.** 2.86

**Q.** And the “G/F (Reciprocal of F/G)” value [1, 4]?
**A.** 0.35

**Q.** And the “hot carcass weight, dressing percent and loin eye area” value [2]?
**A.** increase

**Q.** What does the source list for `CC1=C(/C=C/C(C)=C/C=C/C(C)=C/C=C/C=C(C)/C=C/C=C(C)/C=C/C2=C(C)C(=O)C(O)CC2(C)C)C(C)(C)CC(O)C1=O` (stereo not drawn) [astaxanthin, 3,3′-dihydroxy-β,β-carotene-4,4′ dione]?
**A.** BF-10th rib (Back Fat) [1, 5]: 0.84 in.; BF-avg. (Back Fat) [1, 5]: 1.12 in.; Body weight, Final [1, 5]: 287.6 lb; Carcass Yield [1, 5]: 70.4%; HCW (Hot Carcass Weight) [1, 5]: 202.6 lb; LEA-10th rib (Loin Eye Area) [1, 5]: 7.55 in^2; PFFL (Percent Fat Free Lean, SFFL/HCW) [1, 5]: 52.8%; SFFL (Standard Fat Free Lean) [1, 5]: 107.1 lb; LEA (loin eye areas), average ([1]; 7.5 ppm astaxanthin alone): 7.36 square inches; increase of LEA over control pigs ([1]; 7.5 ppm astaxanthin alone vs diets without astaxanthin): 0.10 square inches; BF-10th rib (Back Fat) [1, 6]: 0.81 in.; BF-avg. (Back Fat) [1, 6]: 1.02 in.; Body weight, Final [1, 6]: 287.4 lb; Carcass Yield [1, 6]: 71.5%; HCW (Hot Carcass Weight) [1, 6]: 203.4 lb; LEA-10th rib (Loin Eye Area) [1, 6]: 7.36 in^2; PFFL (Percent Fat Free Lean, SFFL/HCW) [1, 6]: 52.9%; SFFL (Standard Fat Free Lean) [1, 6]: 107.6 lb; BF-10th rib (Back Fat) [1, 7]: 0.77 in.; BF-avg. (Back Fat) [1, 7]: 1.04 in.; Body weight, Final [1, 7]: 286.2 lb; Carcass Yield [1, 7]: 70.8%; HCW (Hot Carcass Weight) [1, 7]: 202.5 lb; LEA-10th rib (Loin Eye Area) [1, 7]: 7.53 in^2; PFFL (Percent Fat Free Lean, SFFL/HCW) [1, 7]: 53.7%; SFFL (Standard Fat Free Lean) [1, 7]: 108.6 lb; ADFI (Average Daily Feed Intake) [1, 5]: 8.06 lb; ADG (Average Daily Gain) [1, 5]: 2.34 lb; F/G (Pounds of feed to gain one pound of weight) [1, 5]: 3.44; G/F (Reciprocal of F/G) [1, 5]: 0.29; ADFI (Average Daily Feed Intake) [1, 6]: 8.03 lb; ADG (Average Daily Gain) [1, 6]: 2.45 lb; F/G (Pounds of feed to gain one pound of weight) [1, 6]: 3.28; G/F (Reciprocal of F/G) [1, 6]: 0.31; ADFI (Average Daily Feed Intake) [1, 7]: 8.01 lb; ADG (Average Daily Gain) [1, 7]: 2.41 lb; F/G (Pounds of feed to gain one pound of weight) [1, 7]: 3.35; G/F (Reciprocal of F/G) [1, 7]: 0.30; SFFL versus pigs fed a diet without astaxanthin ([1]; astaxanthin alone): no statistical difference; production performance ([3]; 0, 1.5 and 3.0 ppm astaxanthin in diet of finishing pigs): no significant effect; dressing percentage, back fat thickness and loin muscle area ([3]; increasing dietary astaxanthin level (0, 1.5, 3.0 ppm)): linear effect
